Patent US10351586B2, “Cytidine derivative dimers and applications thereof” (CHANGZHOU FANGYUAN PHARMACEUTICAL CO., LTD, priority 2014, dated 2019)

How the values were obtained:
[1] = Body weight / toxicity of a single intraperitoneal injection in HCT-116 colon tumor-bearing nude mice; conditions: for Average rate of weight change of the animals / Average weight of the animals: single IP injection (QD×1), D1 and D2 400 mg/kg; for Average weight of the animals: Mean±SEM
Experimental: Corresponding test substance was weighed and put into a 5 mL glass tube. The test substance was dissolved in ethanol under the stirring by a 5 mm magnetic stirrer. After a complete dissolution, Cremophor EL was added with continuous stirring. Immediately prior to the user of the test substance, the labeled amount of physiological saline was added and stirred.
Animal experiments were performed. The animals were female Balb/c nude mice at specific pathogen free (SPF) level and were supplied from Shanghai Sippr/BK Lab Animal Ltd. (Shanghai, China). […] These animals were at the age of about 7 weeks to about 9 weeks at the beginning of the experiments and had the weight of about 18 grams to about 22 grams at the beginning of the experiment. The animals had acclimatization duration of about 5 days to about 7 days. Animals were numbered using their tail number. The animal room was maintained at about 23±2° C., 40%-70% humidity, with alternating light and dark every 12 hours.
4.2 Animal inoculation and grouping were performed. Under aseptic conditions, each nude mice was injected with 0.1 mL cell suspension into the right hind leg subcutaneously (3×10^6 cell/mouse). When the size of the tumor grew to have a volume of about 60-150 mm^3, nude mice with a similar tumor size and a desirable shape (e.g., with substantially same shape such as a substantially spherical shape, without having irregular shapes or multiple tumors grouped together) were selected and grouped. In the experiment, there were six mice in each group.
The mice in control group were injected with a mixed solution including ethanol, Cremophor EL and normal saline at a ratio of 5:5:90.
The mice were weighed 3 times every week.
4.4 Clinical symptoms were provided. All clinical symptoms of each animal were recorded at the beginning of the experiments and during the experiments. The observation was performed at the same time every day.
After administration of the test substance, when the weight reduction was >20%, when the animal was dying, or when the tumor volume exceeds about 2800 mm^3, the animal were euthanized by applying CO2. The tumor was separated and weighed, an autopsy was performed, and visual inspection was conducted and recorded on whether there were pathological changes in the organs.

[2] = system: HCT-116 human colon cancer cells; assay: Colony formation inhibition test on HCT-116 human colon cancer cells; assay type: cell-based; conditions: for Number of cell clones on HCT-116, mean / inhibition at 0.05 µM / inhibition at 0.15 µM / inhibition at 0.45 µM: 72 h treatment, then 7-10 days; for inhibition at 0.05 µM / inhibition at 0.15 µM / inhibition at 0.45 µM / IC50: Homo sapiens; for inhibition at 0.05 µM / inhibition at 0.15 µM / inhibition at 0.45 µM: HCT-116, read-out: % inhibition (colony formation inhibition rate); for IC50: HCT-116 cells, dose-response 50, 150, 450 nM, read-out: IC50 value (colony formation inhibition, FIG. 7)
Experimental: 1. The colony formation inhibition test was used to evaluate the effect of four exemplary candidate compounds (D1, D2, D3, and D4) having concentrations of 50 nM, 150 nM and 450 nM on inhibiting cell proliferation of HCT-116 human colon cancer cells line.
2. Experiment material includes cell lines. HCT-116 human colon cancer cell line was purchased from the Chinese Academy of Sciences Shanghai Cell Resource Center, Cat # TCHu 99.
3. Reagent preparation includes HCT-116 human colon cancer cell culture medium, e.g., Dulbecco's Modified Eagle's medium (DMEM) medium with 10% fetal bovine serum (FBS). Compound solutions were prepared by dissolving and diluting the above synthesized compounds in dimethyl sulfoxide (DMSO) to a final concentration of about 100 μM.
Cell staining solution was prepared including 0.5% crystal violet solution prepared using absolute or anhydrous ethanol, and stored in dark. Before staining, the solution was mixed with phosphate buffered saline (PBS) buffer solution by volume ratio of 1:4 as the cell staining solution.
4. Cell culture: cells in logarithmic growth phase were collected, counted, and resuspended in complete culture medium. The cell concentration was adjusted to an appropriate concentration, 6-well culture plates were seeded, with about 300 cells and 1.8 mL of culture medium in each well. Cells were incubated for about 5 hours in an incubator at about 37° C. and about 100% relative humidity and under 5% CO2.
5. Cell colony formation inhibition test and data processing were performed including, for example, (a)-(i) as follows.
(a) Cells in logarithmic growth phase were collected and counted. The cells were re-suspended in culture medium containing 5% FBS, and counted. Six-well plates were seeded according to a rate of 300 cells per well. Cells were incubated for about 5 hours in an incubator at about 37° C. with 100% relative humidity and under 5% CO2.
(b) The compounds were diluted with culture medium (containing 5% FBS) to be concentrations of about 0.5 μM, 1.5 μM and 4.5 μM. Adding the compounds to cells in 200 μL per well, the final concentrations of the compounds were about 50 nM, 150 nM and 450 nM. Each concentration point was repeatedly tested for three times.
(c) Cells were incubated for about 72 hours in an incubator at 37° C. with 100% relative humidity and under 5% CO2. (d) The culture medium from the plates (the culture medium containing the compound(s) was aspirated. The plates were rinsed with Hank's Balance Salt Solution (HBSS) twice, and replaced with fresh culture medium (DMEM medium with 15% FBS).
(e) Cells were incubated for about 7-10 days in an incubator at about 37° C. and 100% relative humidity and under 5% CO2, until the formation of visible cloned plaques. (f) The culture medium was aspirated from the plates. The plates were rinsed twice with PBS solution. (g) The residual PBS was absorbed and removed, and ethanol was added at 1 mL per plate, fixing for 30 minutes.
(h) Ethanol was absorbed and removed, and cell staining solution was added, stained for 3 minutes. (i) The staining solution was aspirated. After rinsing three times with PBS, the cells were counted.
Data processing was performed. Cloning formation efficiency=[As/Ac]×100%; and colony formation inhibition rate=1−cloning formation efficiency, where As denotes number of cell colonies in compound-treated group (cells+compounds to be tested), and Ac denotes number of cell colonies in negative control (without treating with compound) (cells+1% DMSO).

[3] = Day 0, D3 350 mg/kg, D4 300 mg/kg
[4] = Day 1, D3 350 mg/kg, D4 300 mg/kg
[5] = Day 2, D3 350 mg/kg, D4 300 mg/kg
[6] = Day 4, D3 350 mg/kg, D4 300 mg/kg
[7] = Day 7, D3 350 mg/kg, D4 300 mg/kg
[8] = Day 9, D3 350 mg/kg, D4 300 mg/kg
[9] = Day 11, D3 350 mg/kg, D4 300 mg/kg
[10] = Day 14, D3 350 mg/kg, D4 300 mg/kg
[11] = Day 16, D3 350 mg/kg, D4 300 mg/kg
[12] = Day 18, D3 350 mg/kg, D4 300 mg/kg
[13] = Day 21, D3 350 mg/kg, D4 300 mg/kg
[14] = Day 23, D3 350 mg/kg, D4 300 mg/kg
[15] = Day 25, D3 350 mg/kg, D4 300 mg/kg
[16] = Day 28, D3 350 mg/kg, D4 300 mg/kg
[17] = Day 30, D3 350 mg/kg, D4 300 mg/kg

SMILES	Average rate of weight change of the animals [1, 3] [%]	Average weight of the animals [1, 3] [g]	Average rate of weight change of the animals [1, 4] [%]	Average weight of the animals [1, 4] [g]	Average rate of weight change of the animals [1, 5] [%]	Average weight of the animals [1, 5] [g]	Average rate of weight change of the animals [1, 6] [%]	Average weight of the animals [1, 6] [g]	Average rate of weight change of the animals [1, 7] [%]	Average weight of the animals [1, 7] [g]	Average rate of weight change of the animals [1, 8] [%]	Average weight of the animals [1, 8] [g]	Average rate of weight change of the animals [1, 9] [%]	Average weight of the animals [1, 9] [g]	Average rate of weight change of the animals [1, 10] [%]	Average weight of the animals [1, 10] [g]	Average rate of weight change of the animals [1, 11] [%]	Average weight of the animals [1, 11] [g]	Average rate of weight change of the animals [1, 12] [%]	Average weight of the animals [1, 12] [g]	also measured
CCCCOC(=O)Nc1ccn(C2OC(COC(=O)CCCC(=O)OC[C@H]3O[C@@H](n4ccc(NC(=O)OCCCC)nc4=O)C(F)(F)[C@@H]3OC(=O)OCCCC)C(OC(=O)OCCCC)C2(F)F)c(=O)n1 (stereo in doubt) [Compound D1, 1,5-di-[4-N-(n-butyloxycarbonyl)-3′-O-(n-butoxycarbonyl)-2′-deoxy-2′,2′-difluoro-cytidine]glutarate]	0.00	19.98 ± 0.49	−2.55 ± 0.77	19.48 ± 0.58	−12.18 ± 2.63	17.45 ± 0.81	−18.58 ± 4.66	16.15 ± 1.08	−4.23 ± 3.77	19.80 ± 1.40	0.42 ± 1.92	20.75 ± 1.05	2.77 ± 4.27	21.25 ± 1.55	3.29 ± 3.29	21.35 ± 1.35	5.24 ± 2.74	21.75 ± 1.25	12.70 ± 4.20	23.30 ± 1.60	Body weight after drug administration (in words) ([1]; D1 400 mg/kg, single IP, Day 4): significantly decreased; Average rate of weight change of the animals [1, 13]: 7.90 ± 2.90 %; Average weight of the animals [1, 13]: 22.30 ± 1.30 g; Average rate of weight change of the animals [1, 14]: 9.32 ± 3.82 %; Average weight of the animals [1, 14]: 22.60 ± 1.50 g; Average rate of weight change of the animals [1, 15]: 12.20 ± 4.70%; Average weight of the animals [1, 15]: 23.20 ± 1.70 g; Average rate of weight change of the animals [1, 16]: 15.14 ± 3.64%; Average weight of the animals [1, 16]: 23.80 ± 1.50 g; Average rate of weight change of the animals [1, 17]: 14.22 ± 2.22%; Average weight of the animals [1, 17]: 23.60 ± 1.20 g; Number of cell clones on HCT-116, mean ([2]; 50 nM): 242; Number of cell clones on HCT-116, mean ([2]; 150 nM): 188; Number of cell clones on HCT-116, mean ([2]; 450 nM): 52; inhibition at 0.05 µM ([2]; 50 nM): 3.58%; inhibition at 0.15 µM ([2]; 150 nM): 25.1%; inhibition at 0.45 µM ([2]; 450 nM): 79.3%; IC50 [2]: ~245 nM
CCCCOC(=O)Nc1ccn([C@H]2O[C@@H](COC(=O)CCC(=O)OC[C@H]3O[C@@H](n4ccc(NC(=O)OCCCC)nc4=O)C(F)(F)[C@@H]3O)[C@H](O)C2(F)F)c(=O)n1 (stereo in doubt) [Compound D2, 1,5-di-[4-N-(n-butoxycarbonyl)-2′-deoxy-2′,2′-difluoro-cytidine]glutarate]	0.00	19.87 ± 0.25	−0.08 ± 0.74	19.85 ± 0.28	−8.54 ± 1.31	18.17 ± 0.31	−10.63 ± 2.13	17.75 ± 0.44	−6.98 ± 1.43	18.48 ± 0.40	0.21 ± 1.42	19.92 ± 0.45	2.72 ± 1.85	20.42 ± 0.53	4.87 ± 2.08	20.85 ± 0.60	6.32 ± 1.65	21.13 ± 0.51	8.83 ± 1.43	21.63 ± 0.51	Average rate of weight change of the animals [1, 13]: 4.22 ± 1.23 %; Average weight of the animals [1, 13]: 20.72 ± 0.46 g; Average rate of weight change of the animals [1, 14]: 3.66 ± 1.05 %; Average weight of the animals [1, 14]: 20.60 ± 0.40 g; Average rate of weight change of the animals [1, 15]: 5.07 ± 1.44%; Average weight of the animals [1, 15]: 20.88 ± 0.48 g; Average rate of weight change of the animals [1, 16]: 1.57 ± 1.50%; Average weight of the animals [1, 16]: 20.18 ± 0.44 g; Average rate of weight change of the animals [1, 17]: 2.28 ± 1.75%; Average weight of the animals [1, 17]: 20.33 ± 0.55 g; Toxicity in tumor-bearing mice (in words) ([1]; single IP injection, D2 400 mg/kg, D3 350 mg/kg, D4 300 mg/kg, judged from body weight versus control): no toxicity; Number of cell clones on HCT-116, mean ([2]; 50 nM): 243; Number of cell clones on HCT-116, mean ([2]; 150 nM): 191; Number of cell clones on HCT-116, mean ([2]; 450 nM): 36; inhibition at 0.05 µM ([2]; 50 nM): 4.7%; inhibition at 0.15 µM ([2]; 150 nM): 25.1%; inhibition at 0.45 µM ([2]; 450 nM): 85.9%; IC50 [2]: ~227 nM
